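Protocol summary: plate cells (96-well), add compound at 5 concentrations, incubate 48 h, interpolate endpoints linearly. At the GI50, growth is halved.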 Active and inactive are the calls of the source. Rule as the data show it: active = GI50 up to about 1.1 µM and inactive = higher.

Among the test systems are MDA-MB-435; IGROV-1; CAKI-1; PC-3; HCT-116; K562; NCI-H460; SW-620; M14; KM12; SK-MEL-5; SF-268; OVCAR-3; U-251; RPMI-8226; HCT-15; SN12C; SNB-75; SK-OV-3; HOP-92.
Common to all, as to test: inhibition of tumour cell growth, NCI panel, 48 h

For `OCC1=C[C@@](COCc2ccccc2)(OCc2ccccc2)[C@@H](OCc2ccccc2)[C@@H]1OCc1ccccc1`, the GI50 was 6.64 µM (inactive) in the test with MDA-MB-435; 7.01 µM (inactive) in the test on IGROV-1; 14.5 µM (inactive) in the test with CAKI-1; 15.1 µM (inactive) in the test with PC-3; 12.2 µM (inactive) in the test on HCT-116; 10.6 µM (inactive) with K562. Moreover, the GI50 is 18.8 µM (inactive) in the test with NCI-H460; 18.5 µM (inactive) in the test with SW-620; 23.9 µM (inactive) with M14; 15.9 µM (inactive) with KM12; 15.7 µM (inactive) in the test with SK-MEL-5; 11.6 µM (inactive) in the test with SF-268. Further, the GI50 was 11.7 µM (inactive) in the test with OVCAR-3; 6.59 µM (inactive) with U-251; 2.49 µM (inactive) with RPMI-8226; 17.1 µM in the test with HCT-15; 2.86 µM (inactive) with SN12C.

With `CO[C@H]1c2cccc3cccc(c23)[C@@H]1n1[nH]c(=O)n(C(C)(C)C)c1=O`, the GI50 with MDA-MB-435, in the test with IGROV-1, in the test on CAKI-1, with PC-3, with HCT-116 and in the test with K562 was > 100 µM (inactive) in each case. Besides, the GI50 in the test on NCI-H460, in the test on SW-620, in the test with M14, with SNB-75, in the test with KM12 and in the test on SF-268 was > 100 µM (inactive) throughout. For the same compound, the GI50 with OVCAR-3 was > 100 µM (inactive); in the test on U-251 it was > 100 µM (inactive); in the test on SK-OV-3 it was > 100 µM (inactive); in the test with RPMI-8226 it was > 100 µM (inactive); in the test with HCT-15, above 100 µM; with SN12C, > 100 µM (inactive).

In the case of `O=c1cnnc2sc(=S)[nH]n12`, the GI50 in the test on MDA-MB-435 is 24.7 µM (inactive); with IGROV-1 it was 24 µM (inactive); with CAKI-1, 21.9 µM (inactive); in the test on PC-3, 26.7 µM (inactive); in the test with HCT-116, > 100 µM (inactive); in the test with K562, 15.6 µM (inactive). Also, the GI50 with NCI-H460 is 26.7 µM (inactive); in the test on SW-620, 12.4 µM (inactive); in the test on M14, 84.1 µM (inactive); in the test with KM12, > 100 µM (inactive); in the test on SK-MEL-5, 20.1 µM (inactive); in the test on SF-268, 5.04 µM (inactive). Besides, the GI50 is 32.4 µM (inactive) in the test with OVCAR-3, 22.1 µM (inactive) in the test with U-251, 13.7 µM (inactive) in the test with RPMI-8226 and 19.6 µM with HCT-15.

For the compound `CC(C)=CC(O)C(C(O)CCC1(C)OCCO1)S(=O)(=O)c1ccccc1` (stereo not drawn), the GI50 in the test on MDA-MB-435, with IGROV-1, in the test on CAKI-1, in the test on PC-3, in the test on HCT-116 and in the test with NCI-H460 was > 100 µM (inactive) in each case. For the same compound, the GI50 with SW-620, in the test on M14, in the test with SNB-75, with KM12, in the test on SF-268 and with OVCAR-3 was > 100 µM (inactive) each time. Moreover, the GI50 with U-251 is > 100 µM (inactive); in the test on SK-OV-3, > 100 µM (inactive); in the test with RPMI-8226, > 100 µM (inactive); in the test on HCT-15 it was above 100 µM; in the test on SN12C it was > 100 µM (inactive).

As for `COc1cc(/C=C/C(=O)CC(=O)/C=C/c2ccc(O)c(OC)c2)ccc1O` [CURCUMIN], the GI50 in the test on MDA-MB-435 was 2.98 µM (inactive); in the test on IGROV-1, 7.89 µM (inactive); in the test with CAKI-1 it was 11.9 µM (inactive); in the test with PC-3, 8.79 µM (inactive); with HCT-116 it was 2.92 µM (inactive); in the test on K562, 3.13 µM (inactive). Also, the GI50 with NCI-H460 was 8.07 µM (inactive); with SW-620, 4.19 µM (inactive); in the test on M14 it was 3.78 µM (inactive); in the test with SNB-75, 6.84 µM (inactive); in the test with KM12 it was 5.45 µM (inactive); in the test with SK-MEL-5 it was 8.81 µM (inactive). Moreover, the GI50 in the test on SF-268 is 7.06 µM (inactive); in the test on OVCAR-3, 6.64 µM (inactive); in the test on U-251 it was 4.72 µM (inactive); in the test on SK-OV-3, 8.91 µM (inactive); with RPMI-8226, 2.09 µM (inactive); in the test on HCT-15 it was 4.12 µM. Besides, in the test with SN12C, the GI50 is 8.41 µM (inactive).

In the case of `COC(=O)C1(OC(=O)Sc2ccccc2)CCN(C)CC1`, the GI50 is 13.8 µM (inactive) with MDA-MB-435; 4.75 µM (inactive) with IGROV-1; 4.95 µM (inactive) with CAKI-1; 7.57 µM (inactive) in the test on PC-3; 14.9 µM (inactive) in the test with HCT-116; 22.4 µM (inactive) in the test on K562. Besides, the GI50 with NCI-H460 was 23.6 µM (inactive); with SW-620, 21.7 µM (inactive); with M14, 15.5 µM (inactive); in the test with SNB-75, 16.8 µM (inactive); in the test on KM12, 10.9 µM (inactive); in the test with SK-MEL-5, 22.6 µM (inactive). Besides, the GI50 is 18.4 µM (inactive) in the test on SF-268; 11 µM (inactive) in the test with OVCAR-3; 12.1 µM (inactive) in the test with U-251; 33.3 µM (inactive) in the test with SK-OV-3; 6.38 µM (inactive) in the test with RPMI-8226; 34.9 µM with HCT-15. Further, the GI50 in the test with SN12C was 3.9 µM (inactive).

Take `OCC1COc2cc(Cl)c(Cl)cc2O1` (stereo not drawn): the GI50 in the test with MDA-MB-435, with IGROV-1, in the test on CAKI-1, in the test on PC-3, in the test on HCT-116 and with K562 was > 10 µM (inactive) each time. The GI50 with NCI-H460, in the test on SW-620, with M14, with SNB-75, in the test with KM12 and in the test with SK-MEL-5 was > 10 µM (inactive) each time. For the same compound, the GI50 with SF-268 is > 10 µM (inactive); in the test on OVCAR-3, > 10 µM (inactive); in the test with U-251, > 10 µM (inactive); in the test on SK-OV-3 it was > 10 µM (inactive); in the test on RPMI-8226, > 10 µM (inactive); in the test on HCT-15, above 10 µM. Also, the GI50 in the test with SN12C is > 10 µM (inactive).

On to `CC1(O)C=CC(=O)C=C1`, for which the GI50 in the test on IGROV-1 was 26.8 µM (inactive); in the test with CAKI-1, 30.8 µM (inactive); in the test on HCT-116, 60.1 µM (inactive); in the test on K562, 33.5 µM (inactive); in the test on NCI-H460, 20.3 µM (inactive); in the test with SW-620, 59.2 µM (inactive). The GI50 in the test with M14 was 20.1 µM (inactive); in the test on SNB-75, > 56.1 µM (inactive); in the test with KM12 it was > 48.2 µM (inactive); in the test with SK-MEL-5 it was > 55 µM (inactive); with SF-268, 13.9 µM (inactive); in the test with OVCAR-3, 24.2 µM (inactive). Also, the GI50 in the test with U-251 was 21.9 µM (inactive); with HOP-92, > 100 µM (inactive); in the test with SK-OV-3, > 100 µM (inactive); in the test with RPMI-8226 it was 30.1 µM (inactive); with HCT-15 it was 16 µM; in the test on SN12C, 52.7 µM (inactive).

`Cc1ncc2c(n1)CCC1=C2OS(=O)(=O)CC1N(C)C` (stereo not drawn): the GI50 in the test with MDA-MB-435 is > 100 µM (inactive); in the test with IGROV-1, > 100 µM (inactive); in the test with CAKI-1 it was 69.5 µM (inactive); with PC-3 it was > 100 µM (inactive); with HCT-116, 98.2 µM (inactive); with K562, > 100 µM (inactive). Moreover, the GI50 in the test on NCI-H460 is > 100 µM (inactive); with SW-620 it was > 100 µM (inactive); in the test with M14, 95.9 µM (inactive); in the test with SNB-75, > 100 µM (inactive); in the test on KM12, > 100 µM (inactive); in the test with SK-MEL-5, 70 µM (inactive). For the same compound, the GI50 with SF-268, in the test with OVCAR-3, in the test with U-251, in the test with SK-OV-3, in the test on RPMI-8226 and with SN12C was > 100 µM (inactive) each time.

As to `COC(=O)c1s/c(=N\C(=S)N(C)C)n(-c2ccccc2)c1C(=O)OC`, the GI50 with IGROV-1, in the test with CAKI-1, with HCT-116, with K562, in the test on NCI-H460 and in the test on SW-620 was > 100 µM (inactive) throughout. Moreover, the GI50 with M14 was > 100 µM (inactive); in the test with SNB-75, 52.2 µM (inactive); with KM12, > 100 µM (inactive); in the test with SK-MEL-5 it was > 100 µM (inactive); in the test with SF-268, > 100 µM (inactive); in the test on OVCAR-3, > 100 µM (inactive). The GI50 was > 100 µM (inactive) in the test with U-251; > 100 µM (inactive) in the test with HOP-92; > 100 µM (inactive) with SK-OV-3; 73.5 µM (inactive) with RPMI-8226; above 100 µM with HCT-15; > 100 µM (inactive) with SN12C.

Take `O=C(NNC(=O)c1ccccc1O)c1ccc(O)cc1`: the GI50 was 69.7 µM (inactive) in the test with MDA-MB-435; 23.9 µM (inactive) in the test with IGROV-1; 50.9 µM (inactive) in the test with CAKI-1; 37.6 µM (inactive) in the test with PC-3; 33.2 µM (inactive) in the test on HCT-116; 84.9 µM (inactive) in the test on K562. Besides, the GI50 was 31.5 µM (inactive) in the test on NCI-H460; 81.3 µM (inactive) in the test on SW-620; 23.7 µM (inactive) in the test on M14; 24.4 µM (inactive) with SNB-75; 45.3 µM (inactive) with KM12; > 100 µM (inactive) in the test with SK-MEL-5. Further, the GI50 was 9.95 µM (inactive) with SF-268; 38.4 µM (inactive) in the test with OVCAR-3; > 100 µM (inactive) in the test on U-251; 33.4 µM (inactive) with SK-OV-3; 81.5 µM (inactive) in the test on RPMI-8226; 19.2 µM in the test with HCT-15. In the test with SN12C, the GI50 was > 100 µM (inactive).

Values taken from ChEMBL document CHEMBL1201862, “PubChem BioAssay data set” (2004).
